{"source": "patent US20240360179A1", "about": "“STAPLED PEPTIDES AND METHODS THEREOF” (FOG PHARMACEUTICALS, INC., priority 2021, published 2024)", "key": {"[1]": {"molecular_target": "T1, full-length B-Catenin (Uniprot ID P35222) (Homo sapiens, UniProt P35222)", "T1 construct": "10 nM full-length B-Catenin (Uniprot ID P35222)", "T1 sequence (P35222 1-781)": "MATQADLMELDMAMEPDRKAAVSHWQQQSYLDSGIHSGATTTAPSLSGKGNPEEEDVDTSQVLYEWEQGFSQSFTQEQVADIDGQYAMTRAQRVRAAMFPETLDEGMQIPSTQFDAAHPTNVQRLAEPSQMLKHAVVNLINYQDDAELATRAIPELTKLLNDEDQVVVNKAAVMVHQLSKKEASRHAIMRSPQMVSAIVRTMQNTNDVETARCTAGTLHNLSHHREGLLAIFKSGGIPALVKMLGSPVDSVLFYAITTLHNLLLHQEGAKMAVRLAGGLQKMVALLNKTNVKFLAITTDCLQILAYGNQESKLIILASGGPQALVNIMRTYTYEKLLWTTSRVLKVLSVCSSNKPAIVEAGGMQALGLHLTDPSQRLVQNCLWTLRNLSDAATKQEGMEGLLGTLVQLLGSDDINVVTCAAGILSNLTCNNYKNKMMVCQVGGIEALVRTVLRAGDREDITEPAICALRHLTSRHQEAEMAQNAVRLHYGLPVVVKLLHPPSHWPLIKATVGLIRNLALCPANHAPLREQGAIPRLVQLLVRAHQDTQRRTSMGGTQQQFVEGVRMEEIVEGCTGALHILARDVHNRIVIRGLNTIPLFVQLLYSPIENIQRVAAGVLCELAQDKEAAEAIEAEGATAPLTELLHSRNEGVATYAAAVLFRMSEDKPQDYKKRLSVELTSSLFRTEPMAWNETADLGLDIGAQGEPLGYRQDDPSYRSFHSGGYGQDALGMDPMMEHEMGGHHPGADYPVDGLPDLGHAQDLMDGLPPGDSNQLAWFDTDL", "format": "binding", "conditions": "read-out: Competition Fluorescence Polarization IC50"}, "[2]": {"system": "AXIN2 transcripts in COLO320DM cells", "experiment": "qPCR of AXIN2 transcripts in COLO320DM cells", "format": "cell-based, human", "source_text": "RT-qPCR. […] Relative gene expression levels were monitored using the Taqman Gene Expression probes for AXIN2 (Hs00610344 m1, ThermoFisher), SP5 (Hs01370227-mH, ThermoFisher), RNF43 (Hs00214886-m1, ThermoFisher), NOTUM (Hs00991061-m1, ThermoFisher), CXCL12 (Hs03676656-mH, ThermoFisher)."}, "[3]": {"system": "beta-catenin driven transcription in HAP1 WT cells", "experiment": "qPCR of beta-catenin driven transcription in HAP1 WT cells (CHIR treated)", "format": "cell-based", "conditions": "CHIR treated"}, "[4]": {"molecular_target": "T2, beta-catenin/TCF4 interaction (Homo sapiens, UniProt P35222)", "T2 construct": "host or cells: HEK293", "T2 sequence (P35222 1-781)": "T1 sequence (P35222 1-781)", "format": "cell-based", "conditions": "read-out: NanoBRET IC50"}, "[5]": {"molecular_target": "T3, biotinylated B-Catenin residues 134-665 (Uniprot ID P35222) (Homo sapiens, UniProt P35222)", "T3 construct": "biotinylated B-Catenin residues 134-665 (Uniprot ID P35222)", "T3 sequence (P35222 134-665)": "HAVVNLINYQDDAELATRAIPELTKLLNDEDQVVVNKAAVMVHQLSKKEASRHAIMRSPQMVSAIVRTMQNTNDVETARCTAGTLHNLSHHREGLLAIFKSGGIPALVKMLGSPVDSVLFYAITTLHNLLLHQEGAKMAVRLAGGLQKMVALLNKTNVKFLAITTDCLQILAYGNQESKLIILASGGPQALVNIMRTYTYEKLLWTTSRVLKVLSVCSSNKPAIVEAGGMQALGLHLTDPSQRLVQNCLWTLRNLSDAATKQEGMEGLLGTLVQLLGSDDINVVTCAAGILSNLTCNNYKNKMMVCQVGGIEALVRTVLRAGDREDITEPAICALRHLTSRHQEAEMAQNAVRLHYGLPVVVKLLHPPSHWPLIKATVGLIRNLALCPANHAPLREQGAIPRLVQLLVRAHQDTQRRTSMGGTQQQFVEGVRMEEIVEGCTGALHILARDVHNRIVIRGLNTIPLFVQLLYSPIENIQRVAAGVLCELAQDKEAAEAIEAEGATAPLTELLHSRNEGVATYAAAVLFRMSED", "experiment": "Surface plasmon resonance (Biacore) binding to beta-catenin", "conditions": "read-out: SPR Kd", "procedure": "In some embodiments, binding to beta-catenin may be measured by surface plasmon resonance (SPR).\nPeptides at 10 mM concentration in DMSO are diluted into Biacore™ running buffer (50 mM Tris pH 8.0, 300 mM NaCl, 2% glycerol, 0.5 mM TCEP, 0.5 mM EDTA, 0.005% Tween-20, 0.09% DMSO) to afford an appropriate dilution range. […] Results were analyzed using the Biacore™ Insight Evaluation Software, fitting to a 1:1 binding model.\nSPR. In some embodiments, SPR may be utilized for characterizing or assessing interactions, bindings, etc. The following protocol is described as an example. In some embodiments, SPR experiments were performed on a Biacore™ 8K (Cytiva, Marlborough, MA) instrument at 25° C. Compounds were diluted into running buffer (50 mM Tris pH 8.0, 300 mM NaCl, 2% glycerol, 0.5 mM TCEP, 0.5 mM EDTA, 0.005% Tween-20, 1% DMSO). […] Results were analyzed using the Biacore™ Insight Evaluation software, with double referencing and fitted to a 1:1 binding affinity model."}, "[6]": {"molecular_target": "T4, beta-catenin/TCF4 interaction (Homo sapiens, UniProt P35222)", "T4 construct": "endogenous in cells; host or cells: DLD1", "T4 sequence (P35222 2-781 limits assumed)": "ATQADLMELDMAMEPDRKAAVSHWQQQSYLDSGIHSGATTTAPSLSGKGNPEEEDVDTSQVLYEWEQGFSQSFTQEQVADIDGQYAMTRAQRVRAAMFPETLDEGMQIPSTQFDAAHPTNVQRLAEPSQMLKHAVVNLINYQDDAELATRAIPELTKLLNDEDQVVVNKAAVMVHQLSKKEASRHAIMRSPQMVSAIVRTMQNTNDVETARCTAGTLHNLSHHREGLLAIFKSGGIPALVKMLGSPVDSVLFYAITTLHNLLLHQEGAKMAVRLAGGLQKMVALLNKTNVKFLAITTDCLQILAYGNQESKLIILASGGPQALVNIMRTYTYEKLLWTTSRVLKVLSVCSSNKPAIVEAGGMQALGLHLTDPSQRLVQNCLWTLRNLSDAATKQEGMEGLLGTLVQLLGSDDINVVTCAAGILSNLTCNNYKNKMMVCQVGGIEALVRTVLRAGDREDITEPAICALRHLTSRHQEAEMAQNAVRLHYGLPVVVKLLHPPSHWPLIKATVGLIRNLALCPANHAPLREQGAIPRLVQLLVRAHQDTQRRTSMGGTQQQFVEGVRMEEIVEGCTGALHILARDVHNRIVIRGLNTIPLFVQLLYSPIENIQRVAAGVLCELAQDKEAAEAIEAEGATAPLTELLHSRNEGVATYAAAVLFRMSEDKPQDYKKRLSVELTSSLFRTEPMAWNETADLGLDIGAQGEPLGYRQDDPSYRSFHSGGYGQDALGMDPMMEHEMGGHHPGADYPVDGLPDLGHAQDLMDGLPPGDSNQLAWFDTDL", "experiment": "Co-immunoprecipitation of endogenous beta-catenin in DLD1 cells", "format": "cell-based", "procedure": "Co-Immunoprecipitation. […] In some embodiments, for co-IP experiments, DLD1 cells were treated with compounds for a period of time, e.g., 4 hours. […] Briefly, 30 μL of protein A/G magnetic beads were added to each lysate and incubated for 1 hr at room temperature."}}}
{"substance": "Ac-PL3-Glu-Npg-B5-Glu-3COOHF-Aib-Ala-Phe-Lys*3-PyrS2-3Thi-BztA-GlnR*3-Ala-NH2 [I-470]", "values": [{"measurement": "IC50", "setting": "[1]", "value": 7.5, "unit": "µM"}, {"measurement": "effect on AXIN2 expression level", "setting": "[2]; COLO320DM cells", "value": "no or very little or non-significant effect"}, {"measurement": "IC50", "setting": "[2]; Reduction of AXIN2 transcripts in COLO320DM cells", "value": "> 20", "unit": "µM"}, {"measurement": "expression of AXIN2 and SP5 by qPCR (transcription)", "setting": "[3]", "value": "No reduction"}, {"measurement": "IC50", "setting": "[4]", "value": "> 20", "unit": "µM"}, {"measurement": "Kd", "setting": "[5]", "value": "> 5", "unit": "µM"}, {"measurement": "beta-catenin/TCF4 interaction by co-IP and Western blotting", "setting": "[6]", "value": "not"}]}
